SMILES strings stand for the structures. Bridge positions count the residues as written; N and C are the ends. Square brackets hold non-standard residues; d marks the D form. Peptide text beside a SMILES is read from it. * marks the point of attachment. Phe(4-COOH) = N[C@@H](Cc1ccc(C(=O)O)cc1)C(=O)O; Bip = N[C@@H](Cc1ccc(-c2ccccc2)cc1)C(=O)O; Phe(3-Me) = Cc1cccc(C[C@H](N)C(=O)O)c1; Cha = N[C@@H](CC1CCCCC1)C(=O)O; Carboxymethyl = O=C(O)C*; Orn = NCCC[C@H](N)C(=O)O; Aun = NCCCCCCCCCCC(=O)O; Dab = NCC[C@H](N)C(=O)O; Dap = NC[C@H](N)C(=O)O; AEEA = NCCOCCOCC(=O)O

The target in this experiment is T1, PD-1/PD-L1 interaction (PE-labeled human PD-L1-Ig binding to Jurkat cell line over-expressing human PD-1) (Homo sapiens, UniProt Q15116).
T1 construct: expressed in transfected cells; host or cells: Jurkat
T1 sequence (Q15116 25-288): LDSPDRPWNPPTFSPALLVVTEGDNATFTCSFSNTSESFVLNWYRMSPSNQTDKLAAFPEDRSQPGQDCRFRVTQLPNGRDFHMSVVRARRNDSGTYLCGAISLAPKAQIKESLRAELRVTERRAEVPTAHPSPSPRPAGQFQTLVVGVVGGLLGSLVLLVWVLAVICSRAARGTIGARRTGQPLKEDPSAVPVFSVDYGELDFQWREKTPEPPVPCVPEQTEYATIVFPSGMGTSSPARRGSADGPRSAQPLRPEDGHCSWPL
The experiment in a line: Jurkat-PD-1 Cell Binding High-Content Screening Assay (CBA). It is filed as cell-based. As to conditions: Jurkat cell line over-expressing human PD-1; PE-labeled PD-L1-Ig 20 nM final; read-out: Jurkat hPD1-PDL1 IC50. An outline of the steps:
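Human PD-L1-Ig carrying a covalent PE label on its Ig tag serves as the probe, applied at 20 nM final to compound-treated (2 h, 37° C) Jurkat-hPD-1 cells in medium with 10% fetal calf serum. After one hour, fixation and nuclear staining precede high-content image analysis.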
As usually defined, the IC50 is the concentration at which inhibition is half-maximal. `CC(C)C[C@H]1NC(=O)[C@H](CCCN)NC(=O)[C@H](C(C)C)NC(=O)[C@H](Cc2ccc(-c3ccccc3)cc2)NC(=O)[C@H](C(C)C)NC(=O)[C@H](Cc2c[nH]c3ccccc23)NC(=O)[C@H](CC(=O)O)NC(=O)[C@H](Cc2ccc(OCC(=O)O)cc2)NC(=O)[C@H](Cc2ccc(OCC(=O)O)cc2)NC(=O)CSC[C@@H](C(=O)N[C@@H](CCN)C(=O)NCCOCCOCC(=O)NCCCCCCCCCCC(=O)O)NC(=O)[C@H](CCCNC(=N)N)NC(=O)[C@H](C(C)C)NC(=O)[C@H](CC2CCCCC2)NC(=O)[C@H](CCN)NC1=O` [Compound 2548] ({CH2CO}-Y(Carboxymethyl)Y(Carboxymethyl)DWV[Bip]V[Orn][dL][Dab][Cha]VRC[Dab][AEEA][Aun]-OH; thioether N-14): the IC50 turned out to be 11.6 nM.
As for `CC(C)C[C@H]1NC(=O)[C@H](CCCN)NC(=O)[C@H](C(C)C)NC(=O)[C@H](Cc2ccc(-c3ccccc3)cc2)NC(=O)[C@H](C(C)C)NC(=O)[C@H](Cc2c[nH]c3ccccc23)NC(=O)[C@H](CC(=O)O)NC(=O)[C@H](Cc2ccc(OCC(=O)O)cc2)NC(=O)[C@H](CN)NC(=O)CSC[C@@H](C(=O)N[C@@H](CCN)C(=O)NCCOCCOCC(=O)NCCCCCCCCCCC(=O)O)NC(=O)[C@H](CCCCN)NC(=O)[C@H](C(C)C)NC(=O)[C@H](CC2CCCCC2)NC(=O)[C@H](CCN)NC1=O` [Compound 2549] ({CH2CO}-[Dap]Y(Carboxymethyl)DWV[Bip]V[Orn][dL][Dab][Cha]VKC[Dab][AEEA][Aun]-OH; thioether N-14), the IC50 came out at 9.4 nM.
As for `Cc1cccc(C[C@@H]2NC(=O)[C@H](CC(=O)O)NC(=O)[C@H](Cc3ccc(OCC(=O)O)cc3)NC(=O)[C@H](CN)NC(=O)CSC[C@@H](C(=O)N[C@@H](CCN)C(=O)NCCOCCOCC(=O)NCCCCCCCCCCC(=O)O)NC(=O)[C@H](CN)NC(=O)[C@H](C(C)C)NC(=O)[C@H](CC3CCCCC3)NC(=O)[C@H](CCN)NC(=O)[C@@H](CC(C)C)NC(=O)[C@H](CCCN)NC(=O)[C@H](C(C)C)NC(=O)[C@H](Cc3ccc(-c4ccccc4)cc3)NC(=O)[C@H](C(C)C)NC2=O)c1` [Compound 2550] ({CH2CO}-[Dap]Y(Carboxymethyl)D[Phe(3-Me)]V[Bip]V[Orn][dL][Dab][Cha]V[Dap]C[Dab][AEEA][Aun]-OH; thioether N-14), the figure is 8 nM.
With `Cc1cccc(C[C@@H]2NC(=O)[C@H](CC(=O)O)NC(=O)[C@H](Cc3ccc(OCC(=O)O)cc3)NC(=O)[C@H](CN)NC(=O)CSC[C@@H](C(=O)N[C@@H](CCN)C(=O)NCCOCCOCC(=O)NCCCCCCCCCCC(=O)O)NC(=O)[C@H](CCCN)NC(=O)[C@H](C(C)C)NC(=O)[C@H](CC3CCCCC3)NC(=O)[C@H](CCN)NC(=O)[C@@H](CC(C)C)NC(=O)[C@H](CCCN)NC(=O)[C@H](C(C)C)NC(=O)[C@H](Cc3ccc(-c4ccccc4)cc3)NC(=O)[C@H](C(C)C)NC2=O)c1` [Compound 2551] ({CH2CO}-[Dap]Y(Carboxymethyl)D[Phe(3-Me)]V[Bip]V[Orn][dL][Dab][Cha]V[Orn]C[Dab][AEEA][Aun]-OH; thioether N-14), the IC50 was found to be 11.2 nM.
With `Cc1cccc(C[C@@H]2NC(=O)[C@H](CC(=O)O)NC(=O)[C@H](Cc3ccc(OCC(=O)O)cc3)NC(=O)[C@H](CN)NC(=O)CSC[C@@H](C(=O)N[C@@H](CCN)C(=O)NCCOCCOCC(=O)NCCCCCCCCCCC(=O)O)NC(=O)[C@H](CCCNC(=N)N)NC(=O)[C@H](C(C)C)NC(=O)[C@H](CC3CCCCC3)NC(=O)[C@H](CCN)NC(=O)[C@@H](CC(C)C)NC(=O)[C@H](CCCN)NC(=O)[C@H](C(C)C)NC(=O)[C@H](Cc3ccc(-c4ccccc4)cc3)NC(=O)[C@H](C(C)C)NC2=O)c1` [Compound 2552] ({CH2CO}-[Dap]Y(Carboxymethyl)D[Phe(3-Me)]V[Bip]V[Orn][dL][Dab][Cha]VRC[Dab][AEEA][Aun]-OH; thioether N-14), the IC50 turned out to be 9.9 nM.
In the case of `CC(C)C[C@H]1NC(=O)[C@H](CCCN)NC(=O)[C@H](C(C)C)NC(=O)[C@H](Cc2ccc(-c3ccccc3)cc2)NC(=O)[C@H](C(C)C)NC(=O)[C@H](Cc2c[nH]c3ccccc23)NC(=O)[C@H](CC(=O)O)NC(=O)[C@H](Cc2ccc(OCC(=O)O)cc2)NC(=O)[C@H](Cc2ccc(OCC(=O)O)cc2)NC(=O)CSC[C@@H](C(=O)N[C@@H](CCN)C(=O)NCCOCCOCC(=O)NCCCCCCCCCCC(=O)O)NC(=O)[C@H](CCCN)NC(=O)[C@H](C(C)C)NC(=O)[C@H](CC2CCCCC2)NC(=O)[C@H](CCN)NC1=O` [Compound 2553] ({CH2CO}-Y(Carboxymethyl)Y(Carboxymethyl)DWV[Bip]V[Orn][dL][Dab][Cha]V[Orn]C[Dab][AEEA][Aun]-OH; thioether N-14), the IC50 was determined as 11.3 nM.
As to `CC(C)C[C@H]1NC(=O)[C@H](CCCN)NC(=O)[C@H](C(C)C)NC(=O)[C@H](Cc2ccc(-c3ccccc3)cc2)NC(=O)[C@H](C(C)C)NC(=O)[C@H](Cc2c[nH]c3ccccc23)NC(=O)[C@H](CC(=O)O)NC(=O)[C@H](Cc2ccc(OCC(=O)O)cc2)NC(=O)[C@H](Cc2ccc(OCC(=O)O)cc2)NC(=O)CSC[C@@H](C(=O)N[C@@H](CCN)C(=O)NCCOCCOCC(=O)NCCCCCCCCCCC(=O)O)NC(=O)[C@H](CN)NC(=O)[C@H](C(C)C)NC(=O)[C@H](CC2CCCCC2)NC(=O)[C@H](CCN)NC1=O` [Compound 2554] ({CH2CO}-Y(Carboxymethyl)Y(Carboxymethyl)DWV[Bip]V[Orn][dL][Dab][Cha]V[Dap]C[Dab][AEEA][Aun]-OH; thioether N-14), the IC50 came out at 11.5 nM.
For `CC(C)C[C@H]1NC(=O)[C@H](CCCN)NC(=O)[C@H](C(C)C)NC(=O)[C@H](Cc2ccc(-c3ccccc3)cc2)NC(=O)[C@H](C(C)C)NC(=O)[C@H](Cc2c[nH]c3ccccc23)NC(=O)[C@H](CC(=O)O)NC(=O)[C@H](Cc2ccc(C(=O)O)cc2)NC(=O)[C@H](Cc2ccc(OCC(=O)O)cc2)NC(=O)CSC[C@@H](C(=O)N[C@@H](CCN)C(=O)NCCCCCCCCCCC(=O)O)NC(=O)[C@H](CCCCN)NC(=O)[C@H](C(C)C)NC(=O)[C@H](CC2CCCCC2)NC(=O)[C@H](CCN)NC1=O` [Compound 2555] ({CH2CO}-Y(Carboxymethyl)[Phe(4-COOH)]DWV[Bip]V[Orn][dL][Dab][Cha]VKC[Dab][Aun]-OH; thioether N-14), the IC50 turned out to be 24.1 nM.
With `CC(C)C[C@H]1NC(=O)[C@H](CCCN)NC(=O)[C@H](C(C)C)NC(=O)[C@H](Cc2ccc(-c3ccccc3)cc2)NC(=O)[C@H](C(C)C)NC(=O)[C@H](Cc2c[nH]c3ccccc23)NC(=O)[C@H](CC(=O)O)NC(=O)[C@H](Cc2ccc(OCC(=O)O)cc2)NC(=O)[C@H](Cc2ccc(OCC(=O)O)cc2)NC(=O)CSC[C@@H](C(=O)N[C@@H](CCN)C(=O)NCCCCCCCCCCC(=O)O)NC(=O)[C@H](CCCNC(=N)N)NC(=O)[C@H](C(C)C)NC(=O)[C@H](CC2CCCCC2)NC(=O)[C@H](CCN)NC1=O` [Compound 2556] ({CH2CO}-Y(Carboxymethyl)Y(Carboxymethyl)DWV[Bip]V[Orn][dL][Dab][Cha]VRC[Dab][Aun]-OH; thioether N-14), the IC50 stood at 43.7 nM.
Then `CC(C)C[C@H]1NC(=O)[C@H](CCCN)NC(=O)[C@H](C(C)C)NC(=O)[C@H](Cc2ccc(-c3ccccc3)cc2)NC(=O)[C@H](C(C)C)NC(=O)[C@H](Cc2c[nH]c3ccccc23)NC(=O)[C@H](CC(=O)O)NC(=O)[C@H](Cc2ccc(OCC(=O)O)cc2)NC(=O)[C@H](CN)NC(=O)CSC[C@@H](C(=O)N[C@@H](CCN)C(=O)NCCCCCCCCCCC(=O)O)NC(=O)[C@H](CCCCN)NC(=O)[C@H](C(C)C)NC(=O)[C@H](CC2CCCCC2)NC(=O)[C@H](CCN)NC1=O` [Compound 2557] ({CH2CO}-[Dap]Y(Carboxymethyl)DWV[Bip]V[Orn][dL][Dab][Cha]VKC[Dab][Aun]-OH; thioether N-14), with 12.1 nM.
As for `Cc1cccc(C[C@@H]2NC(=O)[C@H](CC(=O)O)NC(=O)[C@H](Cc3ccc(OCC(=O)O)cc3)NC(=O)[C@H](CN)NC(=O)CSC[C@@H](C(=O)N[C@@H](CCN)C(=O)NCCCCCCCCCCC(=O)O)NC(=O)[C@H](CN)NC(=O)[C@H](C(C)C)NC(=O)[C@H](CC3CCCCC3)NC(=O)[C@H](CCN)NC(=O)[C@@H](CC(C)C)NC(=O)[C@H](CCCN)NC(=O)[C@H](C(C)C)NC(=O)[C@H](Cc3ccc(-c4ccccc4)cc3)NC(=O)[C@H](C(C)C)NC2=O)c1` [Compound 2558] ({CH2CO}-[Dap]Y(Carboxymethyl)D[Phe(3-Me)]V[Bip]V[Orn][dL][Dab][Cha]V[Dap]C[Dab][Aun]-OH; thioether N-14), the IC50 is 10.7 nM.
On to `Cc1cccc(C[C@@H]2NC(=O)[C@H](CC(=O)O)NC(=O)[C@H](Cc3ccc(OCC(=O)O)cc3)NC(=O)[C@H](CN)NC(=O)CSC[C@@H](C(=O)N[C@@H](CCN)C(=O)NCCCCCCCCCCC(=O)O)NC(=O)[C@H](CCCN)NC(=O)[C@H](C(C)C)NC(=O)[C@H](CC3CCCCC3)NC(=O)[C@H](CCN)NC(=O)[C@@H](CC(C)C)NC(=O)[C@H](CCCN)NC(=O)[C@H](C(C)C)NC(=O)[C@H](Cc3ccc(-c4ccccc4)cc3)NC(=O)[C@H](C(C)C)NC2=O)c1` [Compound 2559] ({CH2CO}-[Dap]Y(Carboxymethyl)D[Phe(3-Me)]V[Bip]V[Orn][dL][Dab][Cha]V[Orn]C[Dab][Aun]-OH; thioether N-14), for which the IC50 turned out to be 11.3 nM.
As for `Cc1cccc(C[C@@H]2NC(=O)[C@H](CC(=O)O)NC(=O)[C@H](Cc3ccc(OCC(=O)O)cc3)NC(=O)[C@H](CN)NC(=O)CSC[C@@H](C(=O)N[C@@H](CCN)C(=O)NCCCCCCCCCCC(=O)O)NC(=O)[C@H](CCCNC(=N)N)NC(=O)[C@H](C(C)C)NC(=O)[C@H](CC3CCCCC3)NC(=O)[C@H](CCN)NC(=O)[C@@H](CC(C)C)NC(=O)[C@H](CCCN)NC(=O)[C@H](C(C)C)NC(=O)[C@H](Cc3ccc(-c4ccccc4)cc3)NC(=O)[C@H](C(C)C)NC2=O)c1` [Compound 2560] ({CH2CO}-[Dap]Y(Carboxymethyl)D[Phe(3-Me)]V[Bip]V[Orn][dL][Dab][Cha]VRC[Dab][Aun]-OH; thioether N-14), the IC50 was found to be 17 nM.

(Values after US20260022142A1, “MACROCYCLIC IMMUNOMODULATORS” (Bristol-Myers Squibb Company, priority 2022, published 2026).)
